Laboratory results: PubChem BioAssay AID226 (DTP/NCI, 2004)
“And” between values parts separate entries of the source, which are not always exact repeats. Equal entries are not always repeated. Inconclusive results and toxic doses are left out.

System: B6C3F1 mice, intracerebral ependymoblastoma, median survival T/C
Experiment: NCI In Vivo Anticancer Drug Screen. Data for tumor model Ependymoblastoma (intracerebral) in B6C3F1 mice
Settings: endpoint: median survival time, higher = longer survival
Protocol: The antitumor activity of compounds was measured in mice bearing transplantable tumors. Survival or tumor size were measured and the results are expressed as the measurement made in the treated group (T) divided by the measurement made in the vehicle treated control group (C). The tumor model used in this assay is Ependymoblastoma (intracerebral) in B6C3F1 mice

[1] = dose: 1.0 mg/kg/injection, schedule: Q01DX001 (ip), vehicle: saline
[2] = dose: 1.0 mg/kg/injection, schedule: Q01DX005 (ip), vehicle: saline with Tween-80
[3] = dose: 2.0 mg/kg/injection, schedule: Q01DX001 (ip), vehicle: saline
[4] = dose: 2.0 mg/kg/injection, schedule: Q01DX005 (ip), vehicle: saline with Tween-80
[5] = dose: 4.0 mg/kg/injection, schedule: Q01DX001 (ip), vehicle: saline
[6] = dose: 8.0 mg/kg/injection, schedule: Q01DX001 (ip), vehicle: saline
[7] = dose: 16.0 mg/kg/injection, schedule: Q01DX001 (ip), vehicle: saline
[8] = dose: 16.0 mg/kg/injection, schedule: Q01DX005 (ip), vehicle: saline with Tween-80
[9] = dose: 2.0 mg/kg/injection, schedule: Q01DX005 (ip), vehicle: Klucel (hydroxypropylcellulose) (HPC)
[10] = dose: 100.0 mg/kg/injection, schedule: Q01DX005 (ip), vehicle: Klucel (hydroxypropylcellulose) (HPC)

## O=NN(CCCl)C(=O)NCCCl
dose: 0.5 mg/kg/injection, schedule: Q01DX009 (ip), vehicle: saline with Tween-80
  T/C: 114 % of control
[1]
  T/C: 96 % of control and 105 % of control
dose: 1.0 mg/kg/injection, schedule: Q01DX005 (ip), vehicle: saline + alcohol
  T/C: 100 % of control and 115 % of control
[2]
  T/C: 99 % of control and 103 % of control
dose: 1.0 mg/kg/injection, schedule: Q01DX009 (ip), vehicle: saline with Tween-80
  T/C: 118 % of control
[3]
  T/C: 96 % of control and 105 % of control
dose: 2.0 mg/kg/injection, schedule: Q01DX005 (ip), vehicle: saline + alcohol
  T/C: 103 % of control and 107 % of control and 119 % of control
[4]
  T/C: 93 % of control and 116 % of control
dose: 2.0 mg/kg/injection, schedule: Q01DX009 (ip), vehicle: saline with Tween-80
  T/C: 153 % of control
dose: 2.5 mg/kg/injection, schedule: Q01DX001 (ip), vehicle: saline with Tween-80
  T/C: 109 % of control
[5]
  T/C: 106 % of control and 111 % of control
dose: 4.0 mg/kg/injection, schedule: Q01DX005 (ip), vehicle: saline + alcohol
  T/C: 170 % of control
dose: 4.0 mg/kg/injection, schedule: Q01DX009 (ip), vehicle: saline with Tween-80
  T/C: 241 % of control
dose: 5.0 mg/kg/injection, schedule: Q01DX001 (ip), vehicle: alcohol
  T/C: 113 % of control
dose: 5.0 mg/kg/injection, schedule: Q01DX001 (ip), vehicle: saline with Tween-80
  T/C: 113 % of control
dose: 7.5 mg/kg/injection, schedule: Q01DX001 (ip), vehicle: saline + alcohol
  T/C: 107 % of control
[6]
  T/C: 108 % of control and 110 % of control
dose: 8.0 mg/kg/injection, schedule: Q01DX005 (ip), vehicle: saline + alcohol
  T/C: 204 % of control and 218 % of control
dose: 8.0 mg/kg/injection, schedule: Q01DX005 (ip), vehicle: saline with Tween-80
  T/C: 171 % of control and 240 % of control
dose: 8.0 mg/kg/injection, schedule: Q01DX009 (ip), vehicle: saline with Tween-80
  T/C: 106 % of control
dose: 10.0 mg/kg/injection, schedule: Q01DX001 (ip), vehicle: saline with Tween-80
  T/C: 99 % of control
dose: 10.0 mg/kg/injection, schedule: Q01DX005 (ip), vehicle: saline with Tween-80
  T/C: 214 % of control
[7]
  T/C: 150 % of control and 163 % of control
dose: 16.0 mg/kg/injection, schedule: Q01DX005 (ip), vehicle: saline + alcohol
  T/C: 376 % of control
[8]
  T/C: 105 % of control
dose: 20.0 mg/kg/injection, schedule: Q01DX001 (ip), vehicle: alcohol
  T/C: 167 % of control
dose: 20.0 mg/kg/injection, schedule: Q01DX001 (ip), vehicle: saline with Tween-80
  T/C: 117 % of control
dose: 24.0 mg/kg/injection, schedule: Q01DX001 (ip), vehicle: saline
  T/C: 300 % of control
dose: 30.0 mg/kg/injection, schedule: Q01DX001 (ip), vehicle: saline + alcohol
  T/C: 177 % of control
dose: 32.0 mg/kg/injection, schedule: Q01DX001 (ip), vehicle: saline
  T/C: 196 % of control and 226 % of control
dose: 40.0 mg/kg/injection, schedule: Q01DX001 (ip), vehicle: alcohol
  T/C: 215 % of control
dose: 40.0 mg/kg/injection, schedule: Q01DX001 (ip), vehicle: saline with Tween-80
  T/C: 112 % of control
dose: 60.0 mg/kg/injection, schedule: Q01DX001 (ip), vehicle: saline + alcohol
  T/C: 359 % of control
dose: 64.0 mg/kg/injection, schedule: Q01DX001 (ip), vehicle: saline
  T/C: 95 % of control

## COc1ccc(CC2C(=O)NC(C)C(=O)N(C)C3C(=O)N(C)C(Cc4ccc(O)c(c4)Oc4ccc(cc4)C3O)C(=O)NC(C)C(=O)NC(C)C(=O)N2C)cc1 (stereo not drawn)
dose: 0.25 mg/kg/injection, schedule: Q01DX005 (ip), vehicle: Klucel (hydroxypropylcellulose) (HPC)
  T/C: 103 % of control
dose: 0.25 mg/kg/injection, schedule: Q01DX005 (ip), vehicle: saline with Tween-80
  T/C: 105 % of control
dose: 0.5 mg/kg/injection, schedule: Q01DX005 (ip), vehicle: Klucel (hydroxypropylcellulose) (HPC)
  T/C: 107 % of control
dose: 0.5 mg/kg/injection, schedule: Q01DX005 (ip), vehicle: saline with Tween-80
  T/C: 114 % of control
dose: 1.0 mg/kg/injection, schedule: Q01DX005 (ip), vehicle: Klucel (hydroxypropylcellulose) (HPC)
  T/C: 106 % of control
[2]
  T/C: 113 % of control
[9]
  T/C: 96 % of control
[4]
  T/C: 114 % of control
dose: 4.0 mg/kg/injection, schedule: Q01DX005 (ip), vehicle: saline with Tween-80
  T/C: 97 % of control

## CCCC(=O)OCC1OC(n2cnc3c(=S)nc[nH]c32)C(OC(=O)CCC)C1OC(=O)CCC (stereo not drawn)
dose: 25.0 mg/kg/injection, schedule: Q01DX005 (ip), vehicle: saline with Tween-80
  T/C: 103 % of control
dose: 50.0 mg/kg/injection, schedule: Q01DX005 (ip), vehicle: saline with Tween-80
  T/C: 105 % of control

## COC1C(CO)OC(n2cnc3c(=S)nc(N)[nH]c32)C1O (stereo not drawn)
dose: 12.5 mg/kg/injection, schedule: Q01DX005 (ip), vehicle: Klucel (hydroxypropylcellulose) (HPC)
  T/C: 104 % of control
dose: 25.0 mg/kg/injection, schedule: Q01DX005 (ip), vehicle: Klucel (hydroxypropylcellulose) (HPC)
  T/C: 109 % of control
dose: 50.0 mg/kg/injection, schedule: Q01DX005 (ip), vehicle: Klucel (hydroxypropylcellulose) (HPC)
  T/C: 119 % of control
[10]
  T/C: 106 % of control

## OC(CBr)C(O)C(O)C(O)CBr (stereo not drawn)
[9]
  T/C: 102 % of control
dose: 4.0 mg/kg/injection, schedule: Q01DX005 (ip), vehicle: Klucel (hydroxypropylcellulose) (HPC)
  T/C: 106 % of control
dose: 50.0 mg/kg/injection, schedule: Q01DX005 (ip), vehicle: saline
  T/C: 122 % of control
[10]
  T/C: 97 % of control
dose: 200.0 mg/kg/injection, schedule: Q01DX005 (ip), vehicle: Klucel (hydroxypropylcellulose) (HPC)
  T/C: 109 % of control
dose: 200.0 mg/kg/injection, schedule: Q01DX005 (ip), vehicle: saline
  T/C: 118 % of control and 195 % of control and 233 % of control

## CC/C(=C(/CC)c1ccc(O)cc1)c1ccc(O)cc1
[8]
  T/C: 102 % of control
dose: 32.0 mg/kg/injection, schedule: Q01DX005 (ip), vehicle: saline with Tween-80
  T/C: 102 % of control
dose: 64.0 mg/kg/injection, schedule: Q01DX005 (ip), vehicle: saline with Tween-80
  T/C: 109 % of control
dose: 128.0 mg/kg/injection, schedule: Q01DX005 (ip), vehicle: saline with Tween-80
  T/C: 104 % of control

## CCCN(C)C(=O)N(CCCl)N=O
dose: 19.4 mg/kg/injection, schedule: Q01DX001 (ip), vehicle: DMSO
  T/C: 116 % of control
dose: 31.3 mg/kg/injection, schedule: Q01DX001 (ip), vehicle: saline + alcohol
  T/C: 320 % of control
dose: 32.4 mg/kg/injection, schedule: Q01DX001 (ip), vehicle: DMSO
  T/C: 169 % of control
dose: 54.0 mg/kg/injection, schedule: Q01DX001 (ip), vehicle: DMSO
  T/C: 239 % of control
dose: 62.5 mg/kg/injection, schedule: Q01DX001 (ip), vehicle: saline + alcohol
  T/C: 324 % of control
dose: 90.0 mg/kg/injection, schedule: Q01DX001 (ip), vehicle: DMSO
  T/C: 368 % of control
dose: 125.0 mg/kg/injection, schedule: Q01DX001 (ip), vehicle: saline + alcohol
  T/C: 110 % of control
dose: 150.0 mg/kg/injection, schedule: Q01DX001 (ip), vehicle: DMSO
  T/C: 366 % of control
dose: 250.0 mg/kg/injection, schedule: Q01DX001 (ip), vehicle: DMSO
  T/C: 365 % of control

## CCCS(=O)CC1NC(=O)NC1=O (stereo not drawn)
dose: 9.38 mg/kg/injection, schedule: Q01DX005 (ip), vehicle: Klucel (hydroxypropylcellulose) (HPC)
  T/C: 101 % of control
dose: 18.75 mg/kg/injection, schedule: Q01DX005 (ip), vehicle: Klucel (hydroxypropylcellulose) (HPC)
  T/C: 98 % of control
dose: 37.5 mg/kg/injection, schedule: Q01DX005 (ip), vehicle: Klucel (hydroxypropylcellulose) (HPC)
  T/C: 109 % of control
dose: 75.0 mg/kg/injection, schedule: Q01DX005 (ip), vehicle: Klucel (hydroxypropylcellulose) (HPC)
  T/C: 106 % of control
dose: 150.0 mg/kg/injection, schedule: Q01DX005 (ip), vehicle: Klucel (hydroxypropylcellulose) (HPC)
  T/C: 98 % of control

## COC1OC(CNC(=O)N(CCCl)N=O)C(O)C(O)C1O (stereo not drawn)
dose: 0.5 mg/kg/injection, schedule: Q01DX001 (ip), vehicle: saline
  T/C: 103 % of control and 119 % of control
[1]
  T/C: 109 % of control and 86 % of control
[3]
  T/C: 99 % of control and 103 % of control
[5]
  T/C: 105 % of control and 109 % of control
[6]
  T/C: 103 % of control and 111 % of control
[7]
  T/C: 119 % of control

## CNc1nc(N(C)C)nc(N(C)C)n1
dose: 16.0 mg/kg/injection, schedule: Q01DX005 (ip), vehicle: saline
  T/C: 98 % of control and 111 % of control
dose: 32.0 mg/kg/injection, schedule: Q01DX005 (ip), vehicle: saline
  T/C: 101 % of control
dose: 64.0 mg/kg/injection, schedule: Q01DX005 (ip), vehicle: saline
  T/C: 104 % of control and 115 % of control
dose: 128.0 mg/kg/injection, schedule: Q01DX005 (ip), vehicle: saline
  T/C: 96 % of control and 111 % of control
